According to US20100184695A1, “VASCULAR ENDOTHELIAL CELL-BINDING PEPTIDE” (priority 2007, published 2010):
No end group written: not given here.

Columns and labels:
HUVEC cells [1] = assay: Uptake of fluorescently labeled peptide-multiarm PEG conjugate into endothelial cell (image analysis scoring); type: cell-based, human; parameters: key: Score 0: No fluorescent luminescent spot in a cell is recognized.; Score 1: Faint fluorescent luminescent spots are recognized in a cell.; Score 2: Fluorescent luminescent spots clearer than in score 1 are recognized in a cell.; Score 3: Many luminescent spots further brighter than in score 2 are seen in a cell; settings: fluorescein-labeled multiarm PEG-peptide conjugate, peptide 16 μM, 8 hours
Method: (§1) PEG having four maleimide groups per molecule (Multiarm PEG, SUNBRIGHT PTE-200MA, manufactured by NOF Corporation) was dissolved in DMSO at the concentration of 2 mM, 20 μl of this solution, and an equivalent amount (20 μl) of a 10 mM fluorescein-labeled peptide solution in DMSO were mixed to react them at room temperature for 2 hours. After 60 μl of PBS was added to dilute the mixture to the total amount of 100 μl, desalting treatment was performed using a spin column (Bio-Rad, Micro Bio-Spin Column 30) equilibrated by washing with 500 μl of PBS three times in advance, and an unbound peptide was separated and removed to obtain a peptide-multiarm PEG conjugate.
A 96-well microplate (glass bottom plate, Nunc No. 164588) was treated with 100 μl of a 1% acidic collagen solution for 10 minutes in advance, and washed with 120 μl of PBS once, and 100 μl of 1×10^5/ml of HUVEC cells were seeded, and cultured under the condition of 37° C. and 5% CO2 for 2 days. Upon use, cells were washed with 150 μl of a medium (EBM-2 medium containing a 2% fetal bovine serum (Cambrex Bio Science, containing a growth factor)) once, and 50 μl of the same medium, and 50 μl of a solution obtained by diluting the multiarm PEG-peptide conjugate (a peptide of SEQ ID No. 12 and a partial peptide thereof (SEQ ID Nos. 17, 18, and 19), a peptide of SEQ ID No. 13 and a partial peptide thereof (SEQ ID Nos. 15, 20, and 21), and a random sequence peptide (SEQ ID No. 77)) prepared in Example 3 (1) with a medium to the peptide concentration of 32 μM were sequentially added, followed by culturing under the condition of 37° C. and 5% CO2 for 8 hours (the peptide concentration at reaction with cells was 16 μM). The cell after the reaction was observed using a confocal laser microscope (Olympus FV1000). The amount of fluorescent luminescent spots derived from the peptide recognized in a cell was scored as follows.
Score 0: No fluorescent luminescent spot in a cell is recognized. Score 1: Faint fluorescent luminescent spots are recognized in a cell. Score 2: Fluorescent luminescent spots clearer than in score 1 are recognized in a cell. Score 3: Many luminescent spots further brighter than in score 2 are seen in a cell.

HUVEC cells [2] = assay: Uptake of fluorescently labeled peptide-PEG conjugate into endothelial cell (quantitative analysis); type: cell-based, human; settings: fluorescein-labeled peptide-multiarm PEG conjugate, peptide 10 μM, 8 hours, 37° C.; fluorescence recovered from cells, added conjugate = 100%
Method: as §1
A 96-well microplate (glass bottom plate, Nunc No. 164588) was treated with 100 μl of a 1% acidic collagen solution for 10 minutes in advance, and washed with 120 μl of PBS once, and 1×10^5/ml of 100 μl of HUVEC cells were seeded, and cultured under the condition of 37° C. and 5% CO2 for 2 days. Upon use, cells were washed with 150 μl of a medium (EBM-2 medium containing a 2% fetal bovine serum (Cambrex Bio Science, containing a growth factor)) once, and 50 μl of the same medium, and 50 μl of a solution obtained by diluting a peptide-multiarm PEG conjugate (SEQ ID Nos. 12, 13, 16 (partial sequence of SEQ ID No. 14), and 77) prepared in Example 3 (1) with a medium to the peptide concentration of 20 μM were sequentially added, followed by culturing under the condition of 37° C. and 5% CO2 for 8 hours (the peptide concentration at reaction with cells was 10 μM). Cells after culturing were washed with 150 μl of a HBSS(+) buffer three times to remove an unbound peptide-multiarm PEG conjugate, and 100 μl of HBSS(+) containing 1% SDS to extract a peptide bound to, or taken into cells. The extract was transferred to another 96-well microplate (black plate), and fluorescence at an excitation wavelength of 490 nm and a detection wavelength of 530 nm was measured using a fluorophotometer. Letting the fluorescent intensity of each of the added peptide-multiarm PEG conjugate to be 100%, the amount (%) of uptake of the peptide into cells was calculated from the fluorescent amount recovered from cells.

HUVEC cells [3] = assay: Uptake of fluorescently labeled peptide-BSA conjugate into endothelial cell (quantitative analysis); type: cell-based, human; settings: fluorescein-labeled peptide-BSA conjugate, peptide 10 μM, 8 hours, 37° C.; fluorescence recovered from cells
Method: (§2) In 1 ml of a 50 mM sodium bicarbonate solution was dissolved 20 mg of BSA, to prepare a 0.3 mM solution. To the total amount (1 ml) of this solution was added 20 μl of a 250 mM solution (final concentration: 5 mM) of NHS-PEO12-maleimide (catalog No. 22112, manufactured by Pierce) which is a divalent crosslinking reagent having a PEG chain spacer, followed by a reaction at room temperature for 1 hour. After the reaction, 100 μl of the solution was desalted using a spin column (Bio-Rad, Micro Bio-Spin Column 30) equilibrated by washing with 500 μl of a 0.1 M sodium phosphate buffer (pH 7.0) three times in advance. An unreacted crosslinking reagent was separated and removed. After desalting, 50 μl of the solution was mixed with an equivalent amount of a 0.1 M sodium phosphate buffer (pH 7.0) to dilute, and to 100 μl of the resulting solution was added 10 μl of a fluorescein-labeled peptide solution in DMSO, followed by a reaction at room temperature for 1 hour. The total amount of the solution after the reaction was desalted using a spin column (Bio-Rad, Micro Bio-Spin Column 30) equilibrated by washing with 500 μl of PBS three times in advance, thereby, an unbound peptide was separated and removed, to obtain a peptide-BSA conjugate solution.
On a 96-well microplate (Corning No. 3595) were seeded 100 μl of 1×10^5/ml HUVEC cells, and cells were cultured under the condition of 37° C. and 5% CO2 for 2 days. Upon use, cells were washed with 150 μl of a medium (EBM-2 medium containing a 2% fetal bovine serum (Cambrex Bio Science, containing a growth factor)) once, and 50 μl of the same medium, and 50 μl of a solution obtained by diluting the peptide-BSA conjugate (SEQ ID Nos. 12, 13, 16, and 77) prepared in Example 3 (2) with a medium to the peptide concentration of 20 μM were sequentially added, followed by culturing under the condition of 37° C. and 5% CO2 for 8 hours (the peptide concentration at reaction with cells was 10 μM). Recovery of the peptide-BSA conjugate bound to, or taken into cells after the reaction, and fluorescence quantitation were performed in the same method as in Example 3.

HUVEC cells [4] = assay: Uptake of fluorescently labeled peptide-BSA conjugate (image analysis); type: cell-based, human; settings: peptide 10 μM, 8 hours
Method: as §2
A 96-well microplate (glass bottom plate, Nunc No. 164588) was treated with 100 μl of a 1% acidic collagen solution for 10 minutes in advance, and washed with 120 μl of PBS once, and 100 μl of 1×10^5/ml of HUVEC cells were seeded, and cultured under the condition of 37° C. and 5% CO2 for 2 days. Upon use, cells were washed with 150 μl of a medium (EBM-2 medium containing a 2% fetal bovine serum (Cambrex Bio Science, containing a growth factor)) once, and 50 μl of the same medium, and 50 μl of a solution obtained by diluting the peptide-BSA conjugate (SEQ ID Nos. 12, 13, 16, and 77) prepared in Example 3 (2) with a medium to the peptide concentration of 20 μM were sequentially added, followed by culturing under the condition of 37° C. and 5% CO2 for 8 hours (the peptide concentration at reaction with cells was 10 μM). Cells after the reaction were observed using a confocal laser microscope (Olympus FV1000).

HeLa = assay: as above; type: cell-based; settings: HeLa comparative cell; compared with uptake into a HUVEC
[5] = test system: normal human umbilical vein endothelial cell; assay: Uptake of peptide-modified liposome encapsulating doxorubicin into HUVEC (quantification analysis); type: cell-based; settings: doxorubicin-encapsulated peptide-modified liposome, 6 hours
Method: Hydrogenated soybean phosphatidyl choline (10 mg), cholesterol (3.4 mg),
distearoylphosphatidylethanolamine-polyethylene glycol 5000 (3.5 mg), and distearoylphosphatidylethanolamine-polyethylene glycol 5000-maleimide (3.1 mg) were dissolved in chloroform, and a solvent in a flask was removed using an evaporator to form a thin film. To this was added 1.7 mL of a 250 mM aqueous ammonium sulfate solution, followed by heating at 65° C. The resulting vesicle was adjusted in a particle size with an extruder using, subsequently, porous membranes of the pore sizes of 1.0 μm, 0.4 μm, and 0.2 μm. Into the prepared liposome having the particle diameter of about 200 nm was encapsulated doxorubicin by a remote loading method. After unencapsulated doxorubicin was removed with a column, peptides (SEQ ID Nos. 12, 13, 76 (partial sequence of SEQ ID No. 7), and 78) were added, respectively, at the ⅕ amount based on maleimide, and a liposome into which various peptides are introduced was prepared. Unreacted maleimide was inactivated by adding the 3-fold amount of 2-mercaptoethanol.
Regarding a 50 to 60% confluent normal human umbilical vein endothelial cell cultured in a 24-well plate, a medium was exchanged, and a doxorubicin-encapsulated peptide-modified liposome solution was added in the half amount of a medium. After 6 hours, cells were washed with a phosphate buffer, treated with trypsin, and cells were collected by a centrifugation procedure. To a cell pellet was added 50 μL of 10% Triton X-100 to dissolve cells and the doxorubicin-encapsulated peptide-modified liposome, 350 μL of isopropanol with 10% 0.75 M HCl added thereto was added, and this was allowed to stand overnight at −20° C. After a centrifugation procedure, the supernatant was analyzed with an ODS column, and doxorubicin taken in the cell was quantitated.

Substance	Intracellular Fluorescence (Score) (HUVEC cells [1])	Recovery of Peptide-PEG conjugate (%) (HUVEC cells [2])	Recovery of Peptide-BSA conjugate (%) (HUVEC cells [3])	Uptake of peptide-BSA conjugate into cell (confocal laser microscopic image) (HUVEC cells [4])	further results
PFLPLYVP [Sequence-15]	2				
GTQLFLIH [Sequence-16]		0.047	0.227	many bright luminescent spots were observed in a cell	Uptake of peptide-BSA conjugate into cell (confocal laser microscopic image) (HeLa): an extremely small amount of peptides were observed in a cell
SEQ ID No. 76: partial sequence of SEQ ID No. 7; sequence not printed in the text (VIPILSIYTA; Designed peptide acting as a vascular endothelial cell binding peptide)					Amount of uptake of doxorubicin compared with random sequence (SEQ ID No. 78) liposome and liposome with no peptide [5]: remarkably increased
PSPLALLT [Sequence-18]	1				
EYDLSTAGGAAA [Sequence-77, reference compound]	0	0.020	0.029	no peptide in, a cell was observed	
TLPSPLAL [Sequence-17]	1				
PLALLTVH [Sequence-19]	1				
TLPSPLALLTVH [Sequence-12, peptide presented by phage PhD clone1-14]	3	0.211	0.127	many bright luminescent spots were observed in a cell	Uptake of peptide-BSA conjugate into cell (confocal laser microscopic image) (HeLa): an extremely small amount of peptides were observed in a cell; Amount of uptake of doxorubicin compared with random sequence (SEQ ID No. 78) liposome and liposome with no peptide [5]: remarkably increased
TVPFLPLY [Sequence-21]	1				
SLTVPFLPLYVP [Sequence-13, peptide presented by phage PhD clone3-30]	2	0.122	0.116	many bright luminescent spots were observed in a cell	Uptake of peptide-BSA conjugate into cell (confocal laser microscopic image) (HeLa): an extremely small amount of peptides were observed in a cell; Amount of uptake of doxorubicin compared with introduction of SEQ ID Nos. 12 and 76 [5]: higher; Amount of uptake of doxorubicin compared with random sequence (SEQ ID No. 78) liposome and liposome with no peptide [5]: remarkably increased; Amount of uptake of doxorubicin relative to no peptide introduction [5]: about 3 fold
SLTVPFLP [Sequence-20]	1				
